# Results reported in ChEMBL document CHEMBL2401728, “An unexpected Dimroth rearrangement leading to annelated thieno[3,2-d][1,2,3]triazolo[1,5-a]pyrimidines with potent antitumor activity” (Eur J Med Chem, 2013).
# Columns and labels:
# Assay type in all cases: functional
# A498 = assay: Cytotoxicity against human A498 cells assessed as cellular growth at 1 uM after 48 hrs by SRB assay relative to control
# COLO 205 = assay: Cytotoxicity against human COLO205 cells assessed as cellular growth at 1 uM after 48 hrs by SRB assay relative to control
# RXF 393 [1] = assay: Cytotoxicity against human RXF393 cells assessed as cellular growth at 0.1 uM after 48 hrs by SRB assay relative to control
# KM12 = assay: Cytotoxicity against human KM12 cells assessed as cellular growth at 100 uM after 48 hrs by SRB assay relative to control
# A549 = assay: Cytotoxicity against human A549 cells assessed as cellular growth at 1 uM after 48 hrs by SRB assay relative to control
# LOX IMVI = assay: Cytotoxicity against human LOXIMVI cells after 48 hrs by SRB assay
# Malme-3M = assay: Cytotoxicity against human MALME-3M cells assessed as cellular growth at 0.01 uM after 48 hrs by SRB assay relative to control
# MDA-MB-435 [2] = assay: Cytotoxicity against human MDA-MB-435 cells assessed as cellular growth at 100 uM after 48 hrs by SRB assay relative to control
# 786-0 = assay: Cytotoxicity against human 786-0 cells assessed as cellular growth at 1 uM after 48 hrs by SRB assay relative to control
# SW-620 [3] = assay: Cytotoxicity against human SW620 cells after 48 hrs by SRB assay; details: SW-620, 48 h
# OVCAR-4 = assay: Cytotoxicity against human OVCAR4 cells after 48 hrs by SRB assay; details: OVCAR-4, 48 h
# SF-539 = assay: Cytotoxicity against human SF539 cells after 48 hrs by SRB assay; details: SF-539, 48 h
# HOP-92 = assay: Cytotoxicity against human HOP92 cells after 48 hrs by SRB assay; details: HOP-92, 48 h
# SK-MEL-5 = assay: Cytotoxicity against human SK-MEL-5 cells assessed as cellular growth at 1 uM after 48 hrs by SRB assay relative to control
# NCI-H226 = assay: Cytotoxicity against human NCI-H226 cells assessed as cellular growth at 0.1 uM after 48 hrs by SRB assay relative to control
# SF-295 = assay: Cytotoxicity against human SF295 cells assessed as cellular growth at 1 uM after 48 hrs by SRB assay relative to control
# IGROV-1 [4] = assay: Cytotoxicity against human IGROV1 cells assessed as cellular growth at 1 uM after 48 hrs by SRB assay relative to control
# [5] = Cytotoxicity against human EKVX cells assessed as cellular growth at 1 uM after 48 hrs by SRB assay relative to control
# SR [6] = assay: Cytotoxicity against human SR cells assessed as cellular growth at 0.1 uM after 48 hrs by SRB assay relative to control
# NCI-H522 = assay: Cytotoxicity against human NCI-H522 cells after 48 hrs by SRB assay; details: NCI-H522, 48 h
# SK-MEL-28 = assay: Cytotoxicity against human SK-MEL-28 cells after 48 hrs by SRB assay; details: SK-MEL-28, 48 h
# U-251 = assay: Cytotoxicity against human U251 cells assessed as cellular growth at 0.01 uM after 48 hrs by SRB assay relative to control
# NCI-H322M = assay: Cytotoxicity against human NCI-H322M cells assessed as cellular growth at 0.1 uM after 48 hrs by SRB assay relative to control
# RXF 393 [7] = assay: Cytotoxicity against human RXF393 cells assessed as cellular growth at 0.01 uM after 48 hrs by SRB assay relative to control
# HL-60(TB) = assay: Cytotoxicity against human HL-60(TB) cells assessed as cellular growth at 1 uM after 48 hrs by SRB assay relative to control
# SW-620 [8] = assay: Cytotoxicity against human SW620 cells assessed as cellular growth at 100 uM after 48 hrs by SRB assay relative to control
# MDA-MB-435 [9] = assay: Cytotoxicity against human MDA-MB-435 cells assessed as cellular growth at 0.1 uM after 48 hrs by SRB assay relative to control
# SR [10] = assay: Cytotoxicity against human SR cells assessed as cellular growth at 100 uM after 48 hrs by SRB assay relative to control
# UACC-257 = assay: Cytotoxicity against human UACC257 cells assessed as cellular growth at 1 uM after 48 hrs by SRB assay relative to control
# BT-549 = assay: Cytotoxicity against human BT549 cells assessed as cellular growth at 0.01 uM after 48 hrs by SRB assay relative to control
# IGROV-1 [11] = assay: Cytotoxicity against human IGROV1 cells assessed as cellular growth at 0.01 uM after 48 hrs by SRB assay relative to control
# CCRF-CEM = assay: Cytotoxicity against human CCRF-CEM cells assessed as cellular growth at 1 uM after 48 hrs by SRB assay relative to control
# SW-620 [12] = assay: Cytotoxicity against human SW620 cells assessed as cellular growth at 0.01 uM after 48 hrs by SRB assay relative to control
# DU-145 = assay: Cytotoxicity against human DU145 cells after 48 hrs by SRB assay; details: DU-145, 48 h
# MDA-MB-468 = assay: Cytotoxicity against human MDA-MB-468 cells assessed as cellular growth at 0.1 uM after 48 hrs by SRB assay relative to control
# [13] = read-out: LC50 (the source's name)
# [14] = read-out: pLC50 (the source's name) (converted)
structure (smiles),measurement,setting,value
O=C(CCCn1c2c(sc3ccccc32)c(=O)n2nnc(-c3ccccc3)c12)NCCc1c[nH]cn1,Activity,A498,55%
same,Activity,COLO 205,41%
same,Activity,RXF 393 [1],125%
same,Activity,KM12,-100%
same,Activity,A549,64%
same,GI50,LOX IMVI; read-out: GI50,1.51 µM
same,CC50,LOX IMVI; [13],5.49 µM
same,TGI,LOX IMVI; read-out: TGI,2.88 µM
same,GI50,LOX IMVI; read-out: pGI50 (converted),1.51 µM
same,CC50,LOX IMVI; [14],5.5 µM
same,TGI,LOX IMVI; read-out: pTGI (converted),2.88 µM
same,Activity,Malme-3M,100%
same,Activity,MDA-MB-435 [2],-76%
same,Activity,786-0,53%
same,GI50,SW-620 [3]; read-out: GI50,0.024 µM
same,CC50,SW-620 [3]; [13],4.16 µM
same,TGI,SW-620 [3]; read-out: TGI,1.01 µM
same,GI50,SW-620 [3]; read-out: pGI50 (converted),0.024 µM
same,CC50,SW-620 [3]; [14],4.17 µM
same,TGI,SW-620 [3]; read-out: pTGI (converted),1 µM
same,GI50,OVCAR-4; read-out: GI50,1.83 µM
same,CC50,OVCAR-4; [13],8.02 µM
same,TGI,OVCAR-4; read-out: TGI,3.83 µM
same,GI50,OVCAR-4; read-out: pGI50 (converted),1.82 µM
same,CC50,OVCAR-4; [14],7.94 µM
same,TGI,OVCAR-4; read-out: pTGI (converted),3.8 µM
same,GI50,SF-539; read-out: GI50,0.0206 µM
same,CC50,SF-539; [13],3.14 µM
same,TGI,SF-539; read-out: TGI,0.122 µM
same,GI50,SF-539; read-out: pGI50 (converted),0.0204 µM
same,CC50,SF-539; [14],3.16 µM
same,TGI,SF-539; read-out: pTGI (converted),0.123 µM
same,GI50,HOP-92; read-out: GI50,4.06 µM
same,CC50,HOP-92; [13],> 100 µM
same,TGI,HOP-92; read-out: TGI,20.5 µM
same,GI50,HOP-92; read-out: pGI50 (converted),4.07 µM
same,CC50,HOP-92; [14],> 100 µM
same,TGI,HOP-92; read-out: pTGI (converted),20.4 µM
same,Activity,SK-MEL-5,70%
same,Activity,NCI-H226,95%
same,Activity,SF-295,39%
same,Activity,IGROV-1 [4],41%
same,Activity,[5],79%
same,Activity,SR [6],85%
same,GI50,NCI-H522; read-out: GI50,0.0435 µM
same,CC50,NCI-H522; [13],> 100 µM
same,TGI,NCI-H522; read-out: TGI,3.11 µM
same,GI50,NCI-H522; read-out: pGI50 (converted),0.0437 µM
same,TGI,NCI-H522; read-out: pTGI (converted),3.09 µM
same,GI50,SK-MEL-28; read-out: GI50,1.69 µM
same,CC50,SK-MEL-28; [13],5.91 µM
same,TGI,SK-MEL-28; read-out: TGI,3.17 µM
same,GI50,SK-MEL-28; read-out: pGI50 (converted),1.7 µM
same,CC50,SK-MEL-28; [14],5.89 µM
same,TGI,SK-MEL-28; read-out: pTGI (converted),3.16 µM
same,Activity,U-251,78%
same,Activity,NCI-H322M,78%
same,Activity,RXF 393 [7],118%
same,Activity,HL-60(TB),29%
same,Activity,SW-620 [8],-100%
same,Activity,MDA-MB-435 [9],69%
same,Activity,SR [10],-100%
same,Activity,UACC-257,109%
same,Activity,BT-549,100%
same,Activity,IGROV-1 [11],101%
same,Activity,CCRF-CEM,-28%
same,Activity,SW-620 [12],63%
same,GI50,DU-145; read-out: GI50,1.07 µM
same,CC50,DU-145; [13],4.75 µM
same,TGI,DU-145; read-out: TGI,2.26 µM
same,GI50,DU-145; read-out: pGI50 (converted),1.07 µM
same,CC50,DU-145; [14],4.79 µM
same,TGI,DU-145; read-out: pTGI (converted),2.24 µM
same,Activity,MDA-MB-468,97%
